Assay results from ChEMBL document CHEMBL5096165, “Histone deacetylase 2: A potential therapeutic target for cancer and neurodegenerative disorders” (Eur J Med Chem, 2021).

Experiments:
[1] = biological target: Histone deacetylase 9 (Homo sapiens, UniProt Q9UKV0)
Description: Inhibition of HDAC9 (unknown origin)

[2] = biological target: T1, Polyamine deacetylase HDAC10 (Homo sapiens, UniProt Q969S8)
T1 sequence (Q969S8 whole entry): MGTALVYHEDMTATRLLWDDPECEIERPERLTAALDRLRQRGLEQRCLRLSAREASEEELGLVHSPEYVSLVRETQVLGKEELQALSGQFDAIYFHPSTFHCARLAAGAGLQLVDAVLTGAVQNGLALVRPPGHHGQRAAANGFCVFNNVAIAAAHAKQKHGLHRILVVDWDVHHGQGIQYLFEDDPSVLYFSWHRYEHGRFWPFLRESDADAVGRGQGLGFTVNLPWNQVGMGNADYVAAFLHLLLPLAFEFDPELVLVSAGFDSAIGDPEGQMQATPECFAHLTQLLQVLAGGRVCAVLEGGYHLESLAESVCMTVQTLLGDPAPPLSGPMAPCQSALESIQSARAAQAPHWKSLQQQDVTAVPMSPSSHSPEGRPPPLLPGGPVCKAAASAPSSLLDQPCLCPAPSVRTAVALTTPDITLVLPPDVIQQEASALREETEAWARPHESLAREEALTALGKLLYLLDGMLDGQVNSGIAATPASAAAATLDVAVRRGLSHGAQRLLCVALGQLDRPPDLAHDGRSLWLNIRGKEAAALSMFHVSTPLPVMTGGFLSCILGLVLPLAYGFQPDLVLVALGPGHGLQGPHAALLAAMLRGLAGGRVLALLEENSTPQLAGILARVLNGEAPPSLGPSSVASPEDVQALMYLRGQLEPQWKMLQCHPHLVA
Description: Inhibition of HDAC10 (unknown origin)

[3] = biological target: Histone deacetylase 5 (Homo sapiens, UniProt Q9UQL6)
Histone deacetylase 5, sequence (Q9UQL6 whole entry): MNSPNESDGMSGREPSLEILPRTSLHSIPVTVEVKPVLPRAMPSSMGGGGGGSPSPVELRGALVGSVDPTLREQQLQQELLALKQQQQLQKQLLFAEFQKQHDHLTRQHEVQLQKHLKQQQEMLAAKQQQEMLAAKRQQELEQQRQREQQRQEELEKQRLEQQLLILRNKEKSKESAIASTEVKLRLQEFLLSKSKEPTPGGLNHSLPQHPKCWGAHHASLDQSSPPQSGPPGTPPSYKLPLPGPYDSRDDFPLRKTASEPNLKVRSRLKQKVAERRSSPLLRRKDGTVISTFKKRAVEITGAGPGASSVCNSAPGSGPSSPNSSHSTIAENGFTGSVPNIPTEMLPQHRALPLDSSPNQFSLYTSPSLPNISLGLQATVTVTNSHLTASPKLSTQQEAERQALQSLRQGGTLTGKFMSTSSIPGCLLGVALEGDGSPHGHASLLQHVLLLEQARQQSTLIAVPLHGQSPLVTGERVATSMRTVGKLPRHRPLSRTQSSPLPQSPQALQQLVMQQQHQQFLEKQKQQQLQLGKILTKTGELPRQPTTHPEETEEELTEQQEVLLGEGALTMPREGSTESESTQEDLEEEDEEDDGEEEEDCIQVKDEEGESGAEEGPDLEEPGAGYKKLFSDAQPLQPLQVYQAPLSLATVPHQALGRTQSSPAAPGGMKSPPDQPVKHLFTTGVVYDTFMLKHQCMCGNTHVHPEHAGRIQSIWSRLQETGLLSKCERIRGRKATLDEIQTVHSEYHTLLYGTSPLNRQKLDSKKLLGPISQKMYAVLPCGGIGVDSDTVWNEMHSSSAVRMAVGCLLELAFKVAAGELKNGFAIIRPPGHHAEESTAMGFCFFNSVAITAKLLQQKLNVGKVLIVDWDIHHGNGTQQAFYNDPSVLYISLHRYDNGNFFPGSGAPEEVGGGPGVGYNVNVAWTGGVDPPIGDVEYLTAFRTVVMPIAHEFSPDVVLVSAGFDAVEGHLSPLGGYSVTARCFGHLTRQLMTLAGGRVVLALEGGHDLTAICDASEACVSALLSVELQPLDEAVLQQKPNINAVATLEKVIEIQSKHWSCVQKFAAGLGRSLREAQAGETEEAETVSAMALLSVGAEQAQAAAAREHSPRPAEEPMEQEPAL
Description: Inhibition of HDAC5 (unknown origin)

Histone deacetylase 9, sequence (Q9UKV0 whole entry): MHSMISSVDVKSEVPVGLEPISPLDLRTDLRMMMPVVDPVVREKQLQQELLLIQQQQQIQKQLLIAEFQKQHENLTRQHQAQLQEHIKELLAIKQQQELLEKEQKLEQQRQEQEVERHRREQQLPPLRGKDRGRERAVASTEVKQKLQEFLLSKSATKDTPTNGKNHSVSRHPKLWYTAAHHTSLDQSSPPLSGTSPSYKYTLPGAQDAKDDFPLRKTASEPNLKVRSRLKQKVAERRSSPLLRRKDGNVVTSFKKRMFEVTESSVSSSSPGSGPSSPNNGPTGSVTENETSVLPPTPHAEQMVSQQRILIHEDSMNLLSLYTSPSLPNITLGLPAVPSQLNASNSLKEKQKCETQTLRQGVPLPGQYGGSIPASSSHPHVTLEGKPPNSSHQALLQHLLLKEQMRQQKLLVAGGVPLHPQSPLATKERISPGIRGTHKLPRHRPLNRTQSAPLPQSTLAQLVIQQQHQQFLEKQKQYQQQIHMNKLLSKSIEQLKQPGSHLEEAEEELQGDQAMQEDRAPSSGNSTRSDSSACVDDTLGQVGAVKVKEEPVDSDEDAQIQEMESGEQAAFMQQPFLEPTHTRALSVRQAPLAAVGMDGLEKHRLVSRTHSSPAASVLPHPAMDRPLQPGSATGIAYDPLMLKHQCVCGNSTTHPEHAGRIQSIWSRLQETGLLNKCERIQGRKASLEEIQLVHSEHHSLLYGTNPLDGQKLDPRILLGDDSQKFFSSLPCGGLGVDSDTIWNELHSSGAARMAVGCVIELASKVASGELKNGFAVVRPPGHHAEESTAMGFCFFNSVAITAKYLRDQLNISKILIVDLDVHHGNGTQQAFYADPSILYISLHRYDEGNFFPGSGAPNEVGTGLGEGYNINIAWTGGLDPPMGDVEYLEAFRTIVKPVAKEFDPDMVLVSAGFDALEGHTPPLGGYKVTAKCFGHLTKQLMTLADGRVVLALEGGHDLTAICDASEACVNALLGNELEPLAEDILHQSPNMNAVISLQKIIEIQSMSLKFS

Structure (SMILES)	IC50 [1]	IC50 [2]	IC50 [3]
Cn1cc(-c2ccc(S(=O)(=O)n3ccc(/C=C/C(=O)Nc4ccccc4N)c3)cc2)cn1 [DOMATINOSTAT]	50 µM	21 µM	–
Cn1cc(CNCC2CCN(c3ncc(C(=O)NO)cn3)CC2)c2ccccc21 [QUISINOSTAT]	–	0.00046 µM	0.00369 µM
